Assay results: the NIST ThermoML archive (doi:10.1016/j.fluid.2014.07.038)
± gives the expanded uncertainty stated by the source.

Details: Liquid; pulse heating to limit of superheat
Work on `CC(C)(CO)CO` [2,2-dimethyl-1,3-propanediol] yielded a Critical pressure of 4200 ± 400 kPa and a Critical temperature of 687 ± 20 K. For `CCCCCCCCCCCCCC(=O)OC` [methyl tetradecanoate], the Critical pressure was 1320 ± 80 kPa and the Critical temperature was 730 ± 14 K. `OCCCO` [propan-1,3-diol] showed a Critical pressure of 6380 ± 520 kPa and a Critical temperature of 721 ± 22 K. In the case of `Cc1ccc(C(=O)O)cc1` [4-methylbenzoic acid], the Critical pressure is reported as 3800 ± 200 kPa and the Critical temperature is reported as 775 ± 16 K. Work on `CCCCCCCC/C=C\CCCCCCCC(=O)OC` [methyl cis-9-octadecenoate] yielded a Critical pressure of 1210 ± 80 kPa and a Critical temperature of 777 ± 16 K. `Cc1ccc(CO)cc1` [1-(hydroxymethyl)-4-methylbenzene] showed a Critical pressure of 3610 ± 200 kPa and a Critical temperature of 719 ± 14 K. For `O=Cc1ccccc1` [benzaldehyde], the Critical pressure was 4410 ± 200 kPa and the Critical temperature was 692 ± 14 K. For `O=Cc1ccccc1C(=O)O` [2-carboxybenzaldehyde], the Critical pressure was 4800 ± 300 kPa and the Critical temperature was 864 ± 18 K. `O=C(O)c1ccccc1` [benzoic acid] showed a Critical pressure of 4530 ± 200 kPa and a Critical temperature of 755 ± 16 K. For `Cc1cccc(C(=O)O)c1` [3-methylbenzoic acid], the Critical pressure was 3850 ± 240 kPa and the Critical temperature was 771 ± 16 K. Work on `Cc1ccccc1C(=O)O` [2-methylbenzoic acid] yielded a Critical pressure of 3920 ± 240 kPa and a Critical temperature of 763 ± 16 K. For `CCCCCCCCCCCCCCCC(=O)OC` [methyl hexadecanoate], the Critical pressure was 1170 ± 80 kPa and the Critical temperature was 760 ± 16 K. In the case of `Cc1ccc(C=O)cc1` [4-methylbenzaldehyde], the Critical pressure is reported as 3800 ± 200 kPa and the Critical temperature is reported as 712 ± 14 K. For `CCCCCCCCCCCCCCCCCC(=O)OC` [methyl octadecanoate], the Critical pressure was 1080 ± 60 kPa and the Critical temperature was 785 ± 16 K. For `OCc1ccccc1` [benzenemethanol], the Critical pressure was 4330 ± 200 kPa and the Critical temperature was 713 ± 14 K.
